Here are results for five compounds from US10294217B2, “Fluoroindole derivatives as muscarinic M1 receptor positive allosteric modulators” (Suven Life Sciences Limited, priority 2015, dated 2019).

Like-named read-outs stand apart in the source and are kept apart here.

The target in test [1] is human Muscarinic M1 receptor (Homo sapiens (Human), UniProt P11229). The test can be described thus: Allosteric potency EC50 for muscarinic M1 receptor (CHO cells, pCRE-Luc reporter). The class given is cell-based. As to conditions: luciferase activity, 4 hours. How it is done:
Determination of Allosteric Potency EC50 Values for Muscarinic M1 Receptor:
A stable CHO cell line expressing recombinant human Muscarinic M1 receptor and pCRE-Luc reporter system was used for cell-based assay. The assay offers a non-radioactive based approach to determine binding of a compound to GPCRs. In this specific assay, the level of intracellular cyclic AMP which is modulated by activation or inhibition of the receptor is measured. The recombinant cells harbor luciferase reporter gene under the control of cAMP response element.
The above cells were grown in 96 well clear bottom white plates in Hams F12 medium containing 10% fetal bovine serum (FBS). Prior to the addition of compounds or standard agonist, cells were serum starved overnight. Increasing concentrations of test compounds were added along with EC20 of acetylcholine in OptiMEM medium to the cells. The incubation was continued at 37° C. in CO2 incubator for 4 hours. Medium was removed and cells were washed with phosphate buffered saline. The cells were lysed and luciferase activity was measured in a Luminometer. Luminescence units were plotted against the compound concentrations using Graphpad software. EC50 values of the compounds were defined as the concentration required in stimulating the luciferase activity by 50% in presence of EC20 of acetylcholine and the results are provided in table 1.

The subject of test [2] is cerebral blood flow in the frontal cortex. The test can be described thus: Modulation of cerebral blood flow in frontal cortex. The class given is in vivo. The settings on record: anaesthetized rats, intravenous, Laser Doppler, FIG. 2. The method, then: Modulation of Cerebral Blood Flow in Frontal Cortex:
The effect of test compound on modulation of cerebral blood flow was evaluated using rats.
Rats were acclimatized to the laboratory environment for at least 7 days. Rats (300-350 grams) were housed in a group of four in a controlled environment (Temp=21±3° C.; Humidity=30-70%) and maintained on a 12-hour light/dark cycle with lights on at 07:00 AM. Food and water was provided ad libitum.
Rats were anaesthetized with 12% urethane (i.p.). Animal's body core temperature was maintained at 37° C. via heating pad and rectal temperature probe. A small incision was made at one of the ventral side of the hind limb and the femoral vein was cannulated with PE10 tubing for drug application. Then animal was placed into a stereotaxic frame and a midline incision was made to expose the skull. A burr hole was drilled over the frontal cortex (stereotaxic coordinates 1 mm anterior and 4 mm lateral to bregma). Oxygen was supplied through the nose cone of the seterotaxic apparatus which was connected to the controlled gaseous supplier with a flow of 200 mL/minute. Laser Doppler probe (AD Instruments Inc) was placed over the hole to monitor cerebral blood flow. […] Data obtained was calculated as percent increase relative to resting basal blood flow level. […]

[3] abbreviates: in presence of EC20 of acetylcholine, read-out: hM1 PAM EC50.

As usually defined, the EC50 is the concentration at which the effect is half-maximal. Take `Cl.O=C(N[C@H]1CCNC[C@H]1F)c1cn(Cc2ccnc(F)c2)c2c(F)ccc(F)c12` (single isomer, unassigned; isomer-i) [Example 22, Cis-N-(3-Fluoropiperidin-4-yl)-1-(2-fluoropyridin-4-ylmethyl)-4,7-difluoro-1H-indole-3-carboxamide hydrochloride (Isomer-I)]: the EC50 in test [1] (hM1 PAM EC50, in presence of EC20 of acetylcholine) is 1490 nM.
As to `Cn1cc(Cn2cc(C(=O)N[C@H]3CCCC[C@@H]3O)c3c(F)cccc32)cn1` [Example 1, N-[(1S,2S)-2-Hydroxycyclohexyl]-1-(1-methyl-1H-pyrazol-4-ylmethyl)-4-fluoro-1H-indole-3-carboxamide], the concentration for a half-maximal effect (EC50) in test [1] (setting [3]) worked out at 1260 nM. Besides, the cerebral blood flow entry in test [2] was “significantly increased the cerebral blood flow”.
As to `O=C(N[C@H]1CCCC[C@@H]1O)c1cn(Cc2ccnc(Cl)c2)c2cccc(F)c12` [Example 2, N-[(1S,2S)-2-Hydroxycyclohexyl]-1-(2-chloropyridin-4-ylmethyl)-4-fluoro-1H-indole-3-carboxamide], the EC50 in test [1] (setting [3]) came to 681 nM.
In the case of `O=C(N[C@H]1CCCC[C@@H]1O)c1cn(Cc2ccnc(F)c2)c2cccc(F)c12` [Example 7, N-[(1S,2S)-2-Hydroxycyclohexyl]-1-(2-fluoropyridin-4-ylmethyl)-4-fluoro-1H-indole-3-carboxamide], the EC50 in test [1] (setting [3]) turned out to be 1360 nM.
Same read-out and setting: for `O=C(N[C@H]1CCCC[C@@H]1O)c1cn(Cc2ccnc(F)c2)c2c(F)ccc(F)c12` [Example 8, N-[(1S,2S)-2-Hydroxycyclohexyl]-1-(2-fluoropyridin-4-ylmethyl)-4,7-difluoro-1H-indole-3-carboxamide] the value was 192 nM.
